# Where “and” joins values, the source holds several entries; their conditions need not be identical. Equal entries are not always repeated.
# Key:
# Type in all cases: in vivo
# Soybean = Soybean Trial 1, pot trial, foliar spray at V2-V3; conditions: soybean
# Navy bean cv Primel = assay: Navy bean Trial 2, pot trial, foliar spray at V2-V3; conditions: navy bean
# Winter wheat cv Limerick = assay: Winter wheat Trial 3, pot trial, sprayed at GS23
# Protocol: The applied concentration of chemical can vary widely depending on the water volume applied to plants as well as other factors such as plant age and size, and plant sensitivity to the product. […] The rate of other components such as spreaders and stickers can be 50-200 ml per ha. C. […] Sprayed: 10 June, at GS23 (early-mid tillering). Plants were scored/assessed at GS33 on 12 July, with other measurements at crop maturity.
# Winter wheat = Winter wheat Trial 4, field trial, mean of nine varieties
# Text: (§1) The applied concentration of chemical can vary widely depending on the water volume applied to plants as well as other factors such as plant age and size, and plant sensitivity to the product. Typical rates of AN-related compounds would be 1-10 g/ha (preferably and as used in these trials, 1 g per hectare was applied), typical rates of acetaminophen or its derivatives would be 1-10 g/ha (preferably and as used in these trials, 3 g per hectare was applied). Typical rates of the agrochemically acceptable additive of the present invention would be 1-10 g/ha (preferably and as used in these trials, less than 3 g per hectare was applied). The rate of other components such as spreaders and stickers can be 50-200 ml per ha.
# D. WINTER WHEAT TRIAL 4—Field trial, sown 18 Oct. 2007. Mean of Nine Varieties—mean values from varieties Solstice, Battalion, Duxford, Marksman, Gallant, Panorama, Qplus, Cassius, Alchemy. Location: Great Dunmow, Essex, UK, 2008. Seed rate 400 seeds/sq metre. Formulations applied mid-tillering (GS23), and assessed at GS33 and at maturity.
# Winter barley = Winter barley Trial 5, field trial, mean of nine varieties
# Text: as §1
# E. WINTER BARLEY TRIAL 5—Field trial, sown 14 Oct. 2007. Mean of Nine Varieties—mean values from varieties Pearl, Flagon, Cassata, Wintmalt, Saffron, Suzuka, Marcorel, Sequel, Volume. Location: Great Dunmow, Essex, UK, 2008. Seed rate 400 seeds/sq metre. Formulations applied mid-tillering (GS23), and assessed at GS33 and at maturity.
# Winter wheat varieties = Winter wheat varieties UK field trials, mean root weight per plant; conditions: for Mean Root Weight Per Plant (g), individual replicate: GS33, individual replicates, listed as B.; for Mean Root Weight Per Plant (g), Mean: GS33, mean of replicates; for Increase in Mean Root Weight Per Plant: GS33, vs A. Control
# Text: F. WINTER WHEAT VARIETIES—UK field trials. Formulations applied at mid-tillering and measured at third node stage (GS33).
# (§2) Treatments compared: • A. Control vs • B. Chlormequat chloride (620 g/litre) applied at 1.0 litre in 250 litres water per hectare. • C. Anthranilic Acid (1 g/ha)+Acetaminophen (3 g/ha) in 250 litres water per hectare. • B.+C. Combination of B. and C. above, in 250 litres water per hectare.
# Mean Root Weight Per Plant (g)—three winter wheat varieties: individual replicates and mean values. Mean root weight per plant (g) is a mean value from 10 median plants taken from a representative 20 plant sample per plot.
# Winter barley varieties = Winter barley varieties UK field trials, mean root weight per plant; conditions: for Mean Root Weight Per Plant (g), individual replicate: GS33, individual replicates, listed as B.; for Mean Root Weight Per Plant (g), Mean: GS33, mean of replicates; for Increase in Mean Root Weight Per Plant: GS33, vs A. Control
# Text: G. WINTER BARLEY VARIETIES—UK field trials. Formulations applied at mid-tillering and measured at third node stage (GS33).
# as §2
# Mean Root Weight Per Plant (g)—three winter barley varieties: individual replicates and mean values.
# [1] = score 0-9, 28 days after spraying
# [2] = increase over the line given as 0 (untreated or growth regulator alone)
# [3] = winter wheat pots, increase over the line given as 0 (untreated or growth regulator alone)
compound,measurement,setting,value
"C[N+](C)(C)CCCl [CCC, Chlormequat chloride]",No of Large Pod Bearing Branches/Plant at Harvest,Soybean; at harvest,1.0
same,Final Seed Yield at Harvest (g per pot),Soybean; one plant per pot,36.0 g per pot
same,Plant Biomass Score (0-9) at Harvest,Soybean; score 0-9,6.0
same,Rooting (0-9) + 28 Days,Soybean; [1],4.4
same,Final Seed Yield + %,Soybean; [2],0%
same,No of Large Pod Bearing Branches/Plant + %,Soybean; [2],0%
same,Plant Biomass Score + %,Soybean; [2],0%
same,Rooting + %,Soybean; [2],0%
same,No of Large Pod Bearing Branches/Plant at Harvest,Navy bean cv Primel; at harvest,1.4
same,Final Seed Yield at Harvest (g per pot),Navy bean cv Primel; one plant per pot,55.6 g per pot
same,Plant Biomass Score (0-9) at Harvest,Navy bean cv Primel; score 0-9,5.4
same,Rooting (0-9) + 28 Days,Navy bean cv Primel; [1],7.4
same,Final Seed Yield + %,Navy bean cv Primel; [2],0%
same,No of Large Pod Bearing Branches/Plant + %,Navy bean cv Primel; [2],0%
same,Plant Biomass Score + %,Navy bean cv Primel; [2],0%
same,Rooting + %,Navy bean cv Primel; [2],0%
same,Total No of Shoots/Plant at GS33,"Winter wheat cv Limerick; winter wheat pots, GS33",3.8
same,Total No of “Large” Shoots/Plant at GS33,"Winter wheat cv Limerick; winter wheat pots, GS33",2.6
same,Rooting (0-9) + 28 Days,"Winter wheat cv Limerick; winter wheat pots, score 0-9, 28 days after spraying",6.0
same,Final Seed Yield + %,Winter wheat cv Limerick; [3],0%
same,Rooting + %,Winter wheat cv Limerick; [3],0%
same,Total No of Shoots/Plant + %,Winter wheat cv Limerick; [3],0%
same,Total No of “Large” Shoots/Plant + %,Winter wheat cv Limerick; [3],0%
same,Final Seed Yield at Harvest (g per pot),"Winter wheat cv Limerick; winter wheat, eight plants per pot",36.4 g per pot
same,Final Ear Wt (10 ears),Winter wheat; CCC 1.0 l/ha,18.4 g
same,Mean Root Diameter GS33 (cm),"Winter wheat; GS33, CCC 1.0 l/ha",2.51 cm
same,Mean Root Length GS33 (cm),"Winter wheat; GS33, CCC 1.0 l/ha",2.40 cm
same,Mean Root Weight GS33,"Winter wheat; GS33, CCC 1.0 l/ha",4.10 g
same,No of “large” Stems GS33,"Winter wheat; GS33, CCC 1.0 l/ha",2.95
same,Total Stem Number GS33,"Winter wheat; GS33, CCC 1.0 l/ha",4.40
same,Mean % Lodged Maturity,"Winter wheat; at maturity, CCC 1.0 l/ha",1.7%
same,Final Ear Wt (10 ears),Winter barley; CCC 1.0 l/ha,22.8 g
same,Mean Root Diameter GS33 (cm),"Winter barley; GS33, CCC 1.0 l/ha",2.05 cm
same,Mean Root Length GS33 (cm),"Winter barley; GS33, CCC 1.0 l/ha",3.66 cm
same,Mean Root Weight GS33,"Winter barley; GS33, CCC 1.0 l/ha",3.06 g
same,No of “large” Stems GS33,"Winter barley; GS33, CCC 1.0 l/ha",4.23
same,Total Stem Number GS33,"Winter barley; GS33, CCC 1.0 l/ha",6.01
same,Mean % Lodged Maturity,"Winter barley; at maturity, CCC 1.0 l/ha",26.3%
same,"Mean Root Weight Per Plant (g), individual replicate",Winter wheat varieties; winter wheat variety Battalion,4.1 g and 4.3 g and 4.4 g and 4.2 g
same,"Mean Root Weight Per Plant (g), Mean",Winter wheat varieties; winter wheat variety Battalion,4.25 g
same,Increase in Mean Root Weight Per Plant,Winter wheat varieties; winter wheat variety Battalion,+1.12 g
same,"Mean Root Weight Per Plant (g), individual replicate",Winter wheat varieties; winter wheat variety Marksman,4.3 g and 4.4 g (2×) and 4.5 g
same,"Mean Root Weight Per Plant (g), Mean",Winter wheat varieties; winter wheat variety Marksman,4.40 g
same,Increase in Mean Root Weight Per Plant,Winter wheat varieties; winter wheat variety Marksman,+1.10 g
same,"Mean Root Weight Per Plant (g), individual replicate",Winter wheat varieties; winter wheat variety Solstice,3.6 g (2×) and 3.7 g and 3.8 g
same,"Mean Root Weight Per Plant (g), Mean",Winter wheat varieties; winter wheat variety Solstice,3.68 g
same,Increase in Mean Root Weight Per Plant,Winter wheat varieties; winter wheat variety Solstice,+0.9 g
same,"Mean Root Weight Per Plant (g), individual replicate",Winter barley varieties; winter barley variety Flagon,4.0 g (2×) and 3.9 g and 4.2 g
same,"Mean Root Weight Per Plant (g), Mean",Winter barley varieties; winter barley variety Flagon,4.03 g
same,Increase in Mean Root Weight Per Plant,Winter barley varieties; winter barley variety Flagon,+1.65 g
same,"Mean Root Weight Per Plant (g), individual replicate",Winter barley varieties; winter barley variety Marcorel,2.8 g (3×) and 2.9 g
same,"Mean Root Weight Per Plant (g), Mean",Winter barley varieties; winter barley variety Marcorel,2.83 g
same,Increase in Mean Root Weight Per Plant,Winter barley varieties; winter barley variety Marcorel,+0.85 g
same,"Mean Root Weight Per Plant (g), individual replicate",Winter barley varieties; winter barley variety Suzuka,4.0 g and 3.0 g (3×)
same,"Mean Root Weight Per Plant (g), Mean",Winter barley varieties; winter barley variety Suzuka,3.25 g
same,Increase in Mean Root Weight Per Plant,Winter barley varieties; winter barley variety Suzuka,+0.90 g

# Source: US20120108431A1, “PLANT GROWTH REGULATOR ADDITIVE” (TAMINCO, NAAMLOZE VENNOOTSCHAP, priority 2009, published 2012)
